# Measurements from patent US8637312B2, “Mammalian culture media with polyamine and iron” (Cellca GmbH, priority 2008, dated 2014).
# Experiments:
# rat hepatoma cells = details: 100 μM in culture medium; Itoh et al. 1994; cited from earlier work
# CHO DG44 host cell line [1] = test: High cell density fed-batch culture of antibody producing CHO clone, cell growth; type: cell-based, Chinese hamster; details: for requirement for optimal cell growth: Example 6, FIG. 6, spermine with iron (III) citrate, iron (III) citrate supplemented at day 6 to 400 mg/l; for effect of spermine and iron together on cell growth: Example 1, FIG. 1, both at high concentration, feed media polyamine and iron free
# From the text: (§1) For all experiments a CHO DG44 host cell line (Urlaub and Chasin, Proc. Natl. Acad. Sci. USA, 1980, 77: 4216) was used. This host cell line was transfected with a vector carrying the gene of an IgG antibody. Transfectants were amplified using MTX in culture medium. An antibody producing clone was isolated and this clone was then used for all experiments.
# (§2) Stock culture cells were kept in a shake flask or in a spinner flask. The stock culture was split into fresh culture medium every two or three days. That means, a small amount of cell culture was used as inoculum and transferred into a new flask and supplemented with fresh culture medium. Cells were cultured at 37° C. in CO2 atmosphere in an incubator. In this way cells were cultured in several passages. One passage is defined as a culture duration of 2-4 days. At different time points inoculum cells were taken from the stock culture and experiments were performed in various scales, for examples in 6-well plates, shake flasks, T-flasks, spinner flasks and bioreactors.
# A basal medium as follows (in the following also termed proprietary culture medium) was used for cultivation of cells in all steps, e.g. in the stock culture, in the culture expansion step and in the production step. The basal medium contains all necessary substances for cell growth, cell viability and cellular productivity. The basal medium contains glucose at 1.0-6.0 g/l, NaCl 2.8-6.2 g/l, KCl 273-945 mg/l, CaCl2 48-290 mg/l, MgCl2 42-330 mg/l, NaH2PO4 56-1130 mg/l, Arginine 56-930 mg/l, Asparagine 44-900 mg/l, Aspartic acid 26-445 mg/l, Cysteine 35-270 mg/l, Glutamic acid 44-900 mg/, Glutamine 44-900 mg/l, Glycine 18-180 mg/l, Histidine 42-670 mg/l, Isoleucine 54-877 mg/l, Leucine 59-1250 mg/l, Lysine 73-1120 mg/l, Methionine 9-454 mg/l, Phenylalanine 35-677 mg/l, Proline 17-828 mg/l, Serine 26-1339 mg/l, Threonine 24-989 mg/l, Tryptophane 9-441 mg/l, Tyrosine 55-565 mg/l, Valine 52-787 mg/l, NaHCO3 2,4 g/l. The basal medium further comprises fatty acids and nucleotides. In all batch and fed-batch experiments the same proprietary culture medium and proprietary feed medium were used, unless otherwise stated. The feed medium used in fed-batch experiments (in the following also termed “proprietary feed medium”) has all necessary substances for cell growth, cell viability and cellular productivity, in particular salts, trace elements, carbohydrates, amino acids, fatty acids, pH regulator, nucleotides. Even though here a rich feed medium is used containing above mentioned substances, feed media must not comprise all of these components. Feed media consisting of one or more of above mentioned substances are suitable also. Both basal medium and feed medium are serum free, protein free, peptone free and peptide free. However, supplementation of media with one or more of above mentioned additives is possible. Thus, both media are chemically defined, consisting of only single, fully defined chemicals.
# Experiments were performed either in batch or in fed-batch modus. If an experiment was designed for fed-batch modus, it was started by inoculating the flask with stock culture cells in the production medium (culture medium). Culture flasks were inoculated with an inoculation cell density of 2 to 4×10^5 viable cells per millilitre. Cells were cultured for 1 to 4 days. The culture was supplemented thereafter with a feed medium for first time. Feeding was done batch wise every 1 to 3 days. Feeding the culture with feed medium was performed batch wise (bolus addition). Feeding of culture can also be done continuously, especially in bioreactors. In fed-batch experiments two different feed media were used. However, it is possible to use one or more than two different feed media. The culture was incubated as long as the cell viability was greater than 50%. Thus, culture duration was approximately 10 to 18 days. Every day samples were taken from cultures and analytical processes were done, such as cell count and metabolite measurements. […]
# CHO DG44 host cell line [2] = test: Batch culture of antibody producing CHO clone, cell growth; type: cell-based, Chinese hamster; details: for effect of spermine and iron together on cell concentration: Example 5, FIG. 5, spermine with iron (III) nitrate nonahydrate, both at high concentration
# From the text: as §1, §2
# A basal medium as follows (in the following also termed proprietary culture medium) was used for cultivation of cells in all steps, e.g. in the stock culture, in the culture expansion step and in the production step. The basal medium contains all necessary substances for cell growth, cell viability and cellular productivity. The basal medium contains glucose at 1.0-6.0 g/l, NaCl 2.8-6.2 g/l, KCl 273-945 mg/l, CaCl2 48-290 mg/l, MgCl2 42-330 mg/l, NaH2PO4 56-1130 mg/l, Arginine 56-930 mg/l, Asparagine 44-900 mg/l, Aspartic acid 26-445 mg/l, Cysteine 35-270 mg/l, Glutamic acid 44-900 mg/, Glutamine 44-900 mg/l, Glycine 18-180 mg/l, Histidine 42-670 mg/l, Isoleucine 54-877 mg/l, Leucine 59-1250 mg/l, Lysine 73-1120 mg/l, Methionine 9-454 mg/l, Phenylalanine 35-677 mg/l, Proline 17-828 mg/l, Serine 26-1339 mg/l, Threonine 24-989 mg/l, Tryptophane 9-441 mg/l, Tyrosine 55-565 mg/l, Valine 52-787 mg/l, NaHCO3 2,4 g/l. The basal medium further comprises fatty acids and nucleotides. In all batch and fed-batch experiments the same proprietary culture medium and proprietary feed medium were used, unless otherwise stated. The feed medium used in fed-batch experiments (in the following also termed “proprietary feed medium”) has all necessary substances for cell growth, cell viability and cellular productivity, in particular salts, trace elements, carbohydrates, amino acids, fatty acids, pH regulator, nucleotides. Even though here a rich feed medium is used containing above mentioned substances, feed media must not comprise all of these components. Feed media consisting of one or more of above mentioned substances are suitable also. Both basal medium and feed medium are serum free, protein free, peptone free and peptide free. […]
# [3] = oligopeptide-free medium; WO 2007/077217; cited from earlier work
# [4] = system: CHO (Chinese hamster ovary) cells; details: 10 μM ferric iron plus spermine 0 to 100 μM, serum containing medium; Gaboriau et al. 2004; cited from earlier work
# [5] = system: BHK (baby hamster kidney) cells; details: adherent growing BHK cells, serum containing medium; Brunton et al. 1991; cited from earlier work
# [6] = Example 8, FIG. 8, in the presence of spermine
compound,measurement,setting,value
[Fe+3] [ferric (Fe^3+) iron],mitochondrial DNA damage,rat hepatoma cells,damaged
[Fe+2] [ferrous (Fe^2+)],mitochondrial DNA damage,rat hepatoma cells,damaged
O=C([O-])CC(O)(CC(=O)[O-])C(=O)[O-].[Fe+3] [iron (III) citrate],requirement for optimal cell growth,CHO DG44 host cell line [1],required
O.O.O.O.O.O.O.O.O.O=[N+]([O-])[O-].O=[N+]([O-])[O-].O=[N+]([O-])[O-].[Fe+3] [iron (III) nitrate nonahydrate],effect of spermine and iron together on cell concentration,CHO DG44 host cell line [2],synergistic effects
O=P([O-])([O-])[O-].[Fe+3] [iron (III) phosphate],effect of high iron concentration on cell growth,CHO DG44 host cell line [1]; [6],promotes cell growth
same,toxicity of high iron concentration to the cells,CHO DG44 host cell line [1]; [6],not toxic
NCCCCN [putrescine],efficiency among amines in promoting cell specific productivity,[3],most efficient amine
NCCCCNCCCN [spermidine],cell concentration reached,"CHO DG44 host cell line [2]; Example 2, FIG. 2, 100 mg/l iron (III) pyrophosphate hydrate, with versus without spermidine",higher concentration
same,toxicity of spermidine,"CHO DG44 host cell line [2]; Example 2, FIG. 2, tested high concentrations, 100 mg/l iron (III) pyrophosphate hydrate",not visible
NCCCNCCCCNCCCN [spermine],effect of spermine and iron together on cell concentration,CHO DG44 host cell line [2],synergistic effects
same,cellular productivity on increasing concentration above 2 mg/l,[3],does not significantly increase
same,number of viable cells,[4],decreases the number of viable cells in a dose-dependent manner
same,toxicity to cells,[5],toxic
same,effect of spermine and iron together on cell growth,CHO DG44 host cell line [1],synergistic effect
same,cell growth with increasing spermine concentration,"CHO DG44 host cell line [1]; Example 3, FIG. 3, 100 mg/l iron (III) pyrophosphate hydrate in medium, 800 mg/l in feed",grow better
same,requirement for optimal cell growth,CHO DG44 host cell line [1],required
same,effect of spermine on cell growth,"CHO DG44 host cell line [1]; Example 7, FIG. 7, iron (III) citrate as iron source, feed 3200 mg/l iron (III) citrate",positive effect
same,effect of spermine on cell growth,"CHO DG44 host cell line [1]; Example 8, FIG. 8, iron (III) phosphate as iron source, feed 800 mg/l iron (III) phosphate",positive effect
iron,need of iron for cell growth,"CHO DG44 host cell line [1]; Example 1, FIG. 1",essential
same,effect of spermine and iron together on cell growth,CHO DG44 host cell line [1],synergistic effect
iron dextran,effect of high iron concentration on cell growth,"CHO DG44 host cell line [1]; Example 9, FIG. 9, 40 mg/l spermine, iron dextran fed at day 6 to 250 mg/l",promotes cell growth
